Key:
[1] = target: T1, ATP-dependent RNA helicase DDX3X (Homo sapiens, UniProt O00571); assay: Inhibition of human recombinant DDX3 helicase activity expressed in Escherichia coli assessed as conversion of a 6-FAM-labeled double stranded RNA in to single stranded nucleic acid by laser scanning densitometric analysis
Target sequence in this assay (O00571 whole entry): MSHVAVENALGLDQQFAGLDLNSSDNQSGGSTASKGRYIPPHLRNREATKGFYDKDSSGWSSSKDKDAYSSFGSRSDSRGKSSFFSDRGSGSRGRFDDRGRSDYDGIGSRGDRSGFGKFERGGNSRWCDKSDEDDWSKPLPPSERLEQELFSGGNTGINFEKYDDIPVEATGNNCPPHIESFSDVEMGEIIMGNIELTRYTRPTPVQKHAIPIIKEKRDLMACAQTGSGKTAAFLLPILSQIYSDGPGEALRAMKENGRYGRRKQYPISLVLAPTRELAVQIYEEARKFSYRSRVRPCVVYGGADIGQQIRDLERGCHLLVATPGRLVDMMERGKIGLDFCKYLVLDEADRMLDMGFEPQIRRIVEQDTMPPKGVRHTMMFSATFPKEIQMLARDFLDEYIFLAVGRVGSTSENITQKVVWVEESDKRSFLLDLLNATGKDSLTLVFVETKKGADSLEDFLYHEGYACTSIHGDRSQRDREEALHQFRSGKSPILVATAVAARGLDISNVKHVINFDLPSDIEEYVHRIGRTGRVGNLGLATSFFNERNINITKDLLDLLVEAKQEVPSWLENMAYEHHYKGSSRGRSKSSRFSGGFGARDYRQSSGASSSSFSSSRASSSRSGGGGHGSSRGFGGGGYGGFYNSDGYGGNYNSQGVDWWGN

[2] = target: T2, ATP-dependent RNA helicase DDX1 (Homo sapiens, UniProt Q92499); assay: Inhibition of human recombinant DDX1 helicase activity expressed in Escherichia coli assessed as conversion of a 6-FAM-labeled double stranded RNA in to single stranded nucleic acid by laser scanning densitometric analysis
T2 sequence (Q92499 whole entry): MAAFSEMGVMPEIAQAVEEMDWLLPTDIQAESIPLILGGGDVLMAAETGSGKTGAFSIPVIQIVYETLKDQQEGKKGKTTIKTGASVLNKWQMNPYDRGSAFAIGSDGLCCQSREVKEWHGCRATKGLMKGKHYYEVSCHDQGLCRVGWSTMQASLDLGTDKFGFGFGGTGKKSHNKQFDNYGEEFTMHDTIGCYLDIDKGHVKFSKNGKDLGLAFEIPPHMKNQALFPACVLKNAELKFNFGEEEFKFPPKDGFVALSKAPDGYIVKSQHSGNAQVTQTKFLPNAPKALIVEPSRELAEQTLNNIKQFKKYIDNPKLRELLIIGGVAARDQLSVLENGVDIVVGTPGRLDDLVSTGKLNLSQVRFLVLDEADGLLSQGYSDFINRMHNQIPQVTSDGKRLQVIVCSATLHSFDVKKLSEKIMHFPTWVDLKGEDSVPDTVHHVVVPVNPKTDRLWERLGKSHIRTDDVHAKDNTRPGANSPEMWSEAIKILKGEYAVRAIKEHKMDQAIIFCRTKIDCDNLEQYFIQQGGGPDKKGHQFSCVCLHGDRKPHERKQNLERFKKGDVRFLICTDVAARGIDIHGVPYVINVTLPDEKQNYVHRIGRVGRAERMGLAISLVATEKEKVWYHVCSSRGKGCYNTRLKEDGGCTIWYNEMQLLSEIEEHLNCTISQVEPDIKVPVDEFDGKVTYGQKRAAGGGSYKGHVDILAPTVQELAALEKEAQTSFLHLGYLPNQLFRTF

[3] = Inhibition of Hepatitis C virus NS3 helicase expressed in Escherichia coli assessed as conversion of a 6-FAM-labeled double stranded RNA in to single stranded nucleic acid by laser scanning densitometric analysis; parameters: species or system Hepacivirus hominis
[4] = target: T1, ATP-dependent RNA helicase DDX3X; assay: Inhibition of human recombinant DDX3 ATPase activity expressed in Escherichia coli assessed as [gamma-32P] ATP hydrolysis after 5 mins by densitometric analysis
Target sequence in this assay (O00571 whole entry): as the sequence (O00571 whole entry) above

[5] = test system: Human immunodeficiency virus 1; assay: Antiviral activity against multidrug-resistant HIV1 infected in phytohemagglutininin-P stimulated human PBMC cells assessed as inhibition of viral replication after 72 hrs post infection; assay type: functional, organism-based; conditions: Human immunodeficiency virus 1, PBMC
[6] = Cytotoxicity against human PBMC cells assessed as cell viability after 72 hrs by MTS assay; assay type: cell-based
[7] = Selectivity ratio of CC50 for human PBMC cells to EC50 for multidrug-resistant HIV1 infected in phytohemagglutininin-P-stimulated human PBMC cells; assay type: ADME, cell-based; conditions: read-out: Ratio CC50/EC50
[8] = target: T1, ATP-dependent RNA helicase DDX3X
Target sequence in this assay (O00571 2-662 limits assumed): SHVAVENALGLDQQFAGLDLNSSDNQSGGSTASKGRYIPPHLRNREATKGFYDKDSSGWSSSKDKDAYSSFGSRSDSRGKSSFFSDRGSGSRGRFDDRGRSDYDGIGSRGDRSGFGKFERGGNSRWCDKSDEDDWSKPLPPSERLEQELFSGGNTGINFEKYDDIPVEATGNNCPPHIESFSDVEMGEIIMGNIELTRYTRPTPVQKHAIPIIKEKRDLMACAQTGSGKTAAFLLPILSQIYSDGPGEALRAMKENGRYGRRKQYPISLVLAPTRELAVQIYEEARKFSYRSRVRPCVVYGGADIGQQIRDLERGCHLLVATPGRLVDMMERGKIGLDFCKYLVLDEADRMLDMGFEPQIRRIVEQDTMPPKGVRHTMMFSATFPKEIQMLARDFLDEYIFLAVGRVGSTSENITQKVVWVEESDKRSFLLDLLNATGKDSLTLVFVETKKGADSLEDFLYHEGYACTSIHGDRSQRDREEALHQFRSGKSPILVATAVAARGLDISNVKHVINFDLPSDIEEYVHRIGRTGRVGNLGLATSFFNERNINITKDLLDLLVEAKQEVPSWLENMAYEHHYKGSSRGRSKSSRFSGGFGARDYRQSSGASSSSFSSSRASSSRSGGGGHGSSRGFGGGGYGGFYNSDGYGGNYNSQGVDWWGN
Description: Competitive inhibition of human recombinant DDX3 expressed in Escherichia coli using 25 nM double strand 18/36mer RNA substrate by PAGE analysis

[9] = target: T1, ATP-dependent RNA helicase DDX3X; remark: listed apart in the source
Target sequence in this assay (O00571 2-662 limits assumed): as above
Description: Competitive inhibition of human recombinant DDX3 expressed in Escherichia coli using 50 nM double strand 18/36mer RNA substrate by PAGE analysis

[10] = target: T1, ATP-dependent RNA helicase DDX3X; remark: listed apart in the source
Target sequence in this assay (O00571 2-662 limits assumed): as above
Description: Competitive inhibition of human recombinant DDX3 expressed in Escherichia coli using 100 nM double strand 18/36mer RNA substrate by PAGE analysis

SMILES | IC50 [1] | IC50 [2] | IC50 [3] | IC50 [4] | EC50 [5] | CC50 at 72 h [6] | selectivity ratio [7] | ID50 [8] | ID50 [9] | ID50 [10]
Cc1ccccc1NC(=O)Nc1cccc(N)c1 | 5 µM | > 500 µM | > 500 µM | 40 µM | 15 µM | 100 µM | 10 | 4.5 µM | 435 µM | 950 µM
O=C(Nc1ccc(-c2nc3ccccc3[nH]2)cc1)c1cc2ccccc2o1 | 42 µM | > 500 µM | > 500 µM | > 1000 µM |  |  |  |  |  | 
Cc1[nH]c2ccccc2c1C1=CC(c2ccccc2)=NN=C(c2ccccc2)C1 | 6 µM | > 500 µM | > 500 µM | > 1000 µM |  |  |  |  |  | 
O=C(Nc1cccc([N+](=O)[O-])c1)Nc1cccc([N+](=O)[O-])c1 |  | > 500 µM | > 500 µM | > 1000 µM |  |  |  |  |  | 
Cc1ccccc1NC(=O)Nc1cccc(NC(=O)Nc2ccccc2C)c1 | 65 µM | > 500 µM | > 500 µM | 17 µM |  |  |  |  |  | 
Nc1cccc(NC(=O)Nc2cccc(N)c2)c1 |  | > 500 µM | > 500 µM | > 1000 µM |  |  |  |  |  | 
Cc1ccccc1NC(=O)Nc1cccc([N+](=O)[O-])c1 |  | > 500 µM | > 500 µM | 20 µM | 10 µM | 100 µM | 10 |  |  | 

Reference: ChEMBL document CHEMBL2010683, “Discovery of the first small molecule inhibitor of human DDX3 specifically designed to target the RNA binding site: towards the next generation HIV-1 inhibitors” (Bioorg Med Chem Lett, 2012)
